This passage reports AC50 results from patent publication US20250346600A1, “TRICYCLIC DERIVATIVES AND RELATED USES” (MOMA Therapeutics, Inc., priority 2023, published 2025).

For one assay, the system named is HCT116 cells. In words: HCT116 (MSI) 7 day viability, CellTiter Glo. Type of assay: cell-based. Conditions: Homo sapiens, HCT-116, 168 h, 7 days, read-out: HCT116 (MSI) Viability 7 Day Abs AC50. The protocol:
(§1) Compounds were dissolved in DMSO to a concentration of 10 mM. Compounds were then serially diluted in 10 3-fold steps in DMSO using an EVO (Tecan). Plates were then spun down for 1 minute at 1,000 RPM at room temperature.
(§2) The colon carcinoma lines HCT116 (RRID: CVCL_0291) and HT29 (RRID: CVCL_0320) were obtained from ATCC. […] All cells were maintained at 37° C. with 5% CO2 incubator.
(§3) After harvesting, cells were spun down for 5 minutes at 1200 RPM. Cells were resuspended in 10 mL of growth media and counted using Countess (Thermo Fisher). Cell concentrations were adjusted to 50 cells/well for HCT116 and 500 cells/well for HT29. 50 μL of diluted cells were added to compound treated 384 well plates using a 12 channel, 300 uL electronic handheld pipette (Integra). Cell treated plates were placed in 37 C with 5% CO2 incubator for 7 days.
(§4) Afterwards, cells were removed from incubator and equilibrated to room temperature for 15 minutes. 35 uL of CellTiter Glo (Promega #G7573) reagent were added to each well using a 12 channel, 300 uL electronic handheld pipette (Integra). Plates were incubated for 20 minutes at room temperature. Luminescence quantification was performed using Envision (PerkinElmer).
(§5) For data analysis, the assay background signal was determined in wells containing medium, but no cells. Potencies were calculated by linear least squares fit to the four-parameter logistic IC50 equation. The reported IC50 values are the geometrical mean of at least 2 independent replicates.

The next assay relates to HT29 cells. In words: HT29 (MSS) 7 day viability, CellTiter Glo. The class given is cell-based. Conditions: Homo sapiens, HT-29, 168 h, 7 days, read-out: HT29 (MSS) Viability 7 Day CTGAbs AC50. The protocol: as §1, §2, §3, §4, §5
(In general: Cellular ATP, detected with luciferase, serves as a proxy for viable cell number.)

Assay [1] addresses Full length WRN protein (aa 2-1432) (Homo sapiens (Human), UniProt Q14191). In words: WRN ATPase ADP-Glo biochemical assay, Assay Format B (100 μM ATP). Conditions: 0.25 nM WRN, 100 nM C6.18 ssDNA, 60 min preincubation, read-out: ATPase ADPGlo AC50 (uM)- Assay Format B. (In general: In ADP-Glo the light output rises with the ADP produced.)

Sequence of Full length WRN protein (aa 2-1432) (Q14191 2-1432): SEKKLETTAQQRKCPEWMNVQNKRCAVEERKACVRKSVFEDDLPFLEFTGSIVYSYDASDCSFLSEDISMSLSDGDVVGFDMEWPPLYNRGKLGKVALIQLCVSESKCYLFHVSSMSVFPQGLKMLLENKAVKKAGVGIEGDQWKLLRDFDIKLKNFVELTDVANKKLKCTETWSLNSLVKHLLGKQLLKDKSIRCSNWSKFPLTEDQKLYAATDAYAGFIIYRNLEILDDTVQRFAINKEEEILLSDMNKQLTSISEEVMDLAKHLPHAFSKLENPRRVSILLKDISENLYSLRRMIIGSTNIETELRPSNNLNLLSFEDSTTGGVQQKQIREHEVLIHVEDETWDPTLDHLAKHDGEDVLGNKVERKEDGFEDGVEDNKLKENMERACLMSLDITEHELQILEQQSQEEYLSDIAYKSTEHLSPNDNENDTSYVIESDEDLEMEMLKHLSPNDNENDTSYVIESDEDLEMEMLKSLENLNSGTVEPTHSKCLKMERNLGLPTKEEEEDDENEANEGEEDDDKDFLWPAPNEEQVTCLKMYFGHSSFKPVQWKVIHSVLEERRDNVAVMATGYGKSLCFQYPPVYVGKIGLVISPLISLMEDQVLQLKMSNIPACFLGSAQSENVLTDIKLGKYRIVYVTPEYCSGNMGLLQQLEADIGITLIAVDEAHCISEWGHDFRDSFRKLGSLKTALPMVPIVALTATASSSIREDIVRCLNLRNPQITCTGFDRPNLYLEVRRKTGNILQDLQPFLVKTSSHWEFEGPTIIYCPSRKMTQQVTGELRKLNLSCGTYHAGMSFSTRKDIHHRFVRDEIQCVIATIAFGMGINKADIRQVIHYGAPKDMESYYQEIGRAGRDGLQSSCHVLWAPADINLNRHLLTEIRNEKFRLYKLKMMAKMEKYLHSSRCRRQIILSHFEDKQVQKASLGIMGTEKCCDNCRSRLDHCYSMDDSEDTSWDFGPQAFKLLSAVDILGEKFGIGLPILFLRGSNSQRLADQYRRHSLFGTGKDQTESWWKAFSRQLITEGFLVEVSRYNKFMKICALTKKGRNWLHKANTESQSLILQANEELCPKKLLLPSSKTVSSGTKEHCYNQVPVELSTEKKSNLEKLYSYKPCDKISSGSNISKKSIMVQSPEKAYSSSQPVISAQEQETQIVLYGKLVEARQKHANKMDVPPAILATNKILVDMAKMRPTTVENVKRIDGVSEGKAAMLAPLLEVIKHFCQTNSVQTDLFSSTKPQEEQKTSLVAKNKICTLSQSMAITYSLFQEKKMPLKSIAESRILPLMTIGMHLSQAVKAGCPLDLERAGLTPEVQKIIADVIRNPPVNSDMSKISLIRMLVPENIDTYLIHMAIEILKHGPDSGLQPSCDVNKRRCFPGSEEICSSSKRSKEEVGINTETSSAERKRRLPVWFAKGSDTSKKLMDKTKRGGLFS

In general, AC50 refers to the concentration at which the activity in the assay is half-maximal. For `C=CC(=O)N1CCc2nn(-c3ccc(C(C)C)cc3O)c3c2C(C1)N(C(=O)c1cnc(C(F)(F)F)c2[nH]ncc12)CC3` (stereo not drawn) [Compound 176, 1-(2-(2-hydroxy-4-isopropylphenyl)-5-(7-(trifluoromethyl)-1H-pyrazolo[3,4-c]pyridine-4-carbonyl)-2,3,4,5,5a,6,8,9-octahydro-7H-1,2,5,7-tetraazabenzo[cd]azulen-7-yl)prop-2-en-1-one], the AC50 with HCT116 cells was 1 to 100 nM; in the assay with HT29 cells, over 3000 nM; in assay [1], 0.0015 to 0.005 µM.
In the case of `C=CC(=O)N1CCc2nn(-c3ccc(C4CC4)cc3)c3c2C(C1)N(C(=O)c1cnc(OC(F)F)cc1N)CC3` (stereo not drawn) [Compound 177, 1-(5-(4-amino-6-(difluoromethoxy)nicotinoyl)-2-(4-cyclopropylphenyl)-2,3,4,5,5a,6,8,9-octahydro-7H-1,2,5,7-tetraazabenzo[cd]azulen-7-yl)prop-2-en-1-one], the AC50 is 1 to 100 nM with HCT116 cells, over 3000 nM in the assay on HT29 cells and 0.005 to 0.015 µM in assay [1].
In the same order, the values of `C=CC(=O)N1CCc2nn(-c3ccc(C4CC4)cc3)c3c2C(C1)N(C(=O)c1cnc(C(F)(F)F)cc1NC)CC3` (stereo not drawn) [Compound 179, 1-(2-(4-cyclopropylphenyl)-5-(4-(methylamino)-6-(trifluoromethyl)nicotinoyl)-2,3,4,5,5a,6,8,9-octahydro-7H-1,2,5,7-tetraazabenzo[cd]azulen-7-yl)prop-2-en-1-one] are 100 to 250 nM, over 3000 nM and 0.015 to 0.055 µM.
On to `C=CC(=O)N1CCc2nn(-c3ccc(CC(F)(F)F)cc3O)c3c2C(C1)N(C(=O)c1cnc(C(F)(F)F)cc1N)CC3` (stereo not drawn) [Compound 180, 1-(5-(4-amino-6-(trifluoromethyl)nicotinoyl)-2-(2-hydroxy-4-(2,2,2-trifluoroethyl)phenyl)-2,3,4,5,5a,6,8,9-octahydro-7H-1,2,5,7-tetraazabenzo[cd]azulen-7-yl)prop-2-en-1-one], for which the concentration at half-maximal activity (AC50) in the assay with HCT116 cells is 1 to 100 nM; in the assay on HT29 cells, over 3000 nM; in assay [1] it was 0.015 to 0.055 µM.
In the same order, the values of `C=CC(=O)N1CCc2nn(-c3ccc(C4CCC4)cc3)c3c2C(C1)N(C(=O)c1cnc2c(C(F)(F)F)nn(C)c2c1)CC3` (stereo not drawn) [Compound 185, 1-(2-(4-cyclobutylphenyl)-5-(1-methyl-3-(trifluoromethyl)-1H-pyrazolo[4,3-b]pyridine-6-carbonyl)-2,3,4,5,5a,6,8,9-octahydro-7H-1,2,5,7-tetraazabenzo[cd]azulen-7-yl)prop-2-en-1-one] are 1 to 100 nM, 1000 to 3000 nM and 0.015 to 0.055 µM.
In the same order, the values of `C=CC(=O)N1CCc2nn(-c3ccc(C4CC4)cc3)c3c2C(C1)N(C(=O)c1c(N)cc(Br)c2[nH]cnc12)CC3` (stereo not drawn) [Compound 188, 1-(5-(5-amino-7-bromo-1H-benzo[d]imidazole-4-carbonyl)-2-(4-cyclopropylphenyl)-2,3,4,5,5a,6,8,9-octahydro-7H-1,2,5,7-tetraazabenzo[cd]azulen-7-yl)prop-2-en-1-one] are 1 to 100 nM, over 3000 nM and 0.0015 to 0.005 µM.
`C=CC(=O)N1CC(C)c2nn(-c3ccc(C4CC4)cc3O)c3c2C(C1)N(C(=O)c1cnc(Br)cc1N)CC3` (stereo not drawn) [Compound 190, 1-(5-(4-amino-6-bromonicotinoyl)-2-(4-cyclopropyl-2-hydroxyphenyl)-9-methyl-2,3,4,5,5a,6,8,9-octahydro-7H-1,2,5,7-tetraazabenzo[cd]azulen-7-yl)prop-2-en-1-one]: the AC50 in the assay with HCT116 cells is 1 to 100 nM; in the assay on HT29 cells, over 3000 nM; in assay [1], 0.005 to 0.015 µM.
On to `C=CC(=O)N1CCc2nn(-c3ccc(C4CC4)cc3O)c3c2C(C1)N(C(=O)c1cnc(Br)cc1N)CC3` (stereo not drawn) [Compound 191, 1-(5-(4-amino-6-bromonicotinoyl)-2-(4-cyclopropyl-2-hydroxyphenyl)-2,3,4,5,5a,6,8,9-octahydro-7H-1,2,5,7-tetraazabenzo[cd]azulen-7-yl)prop-2-en-1-one], for which the AC50 is 1 to 100 nM in the assay with HCT116 cells, over 3000 nM in the assay on HT29 cells and 0.005 to 0.015 µM in assay [1].
As to `C=CC(=O)N1CCc2nn(-c3ccc(C4CC4)cc3O)c3c2C(C1)N(C(=O)c1cnc(C(F)(F)F)nc1N)CC3` (stereo not drawn) [Compound 197, 1-(5-(4-amino-2-(trifluoromethyl)pyrimidine-5-carbonyl)-2-(4-cyclopropyl-2-hydroxyphenyl)-2,3,4,5,5a,6,8,9-octahydro-7H-1,2,5,7-tetraazabenzo[cd]azulen-7-yl)prop-2-en-1-one], the figures for the AC50 (in the assay with HCT116 cells; in the assay on HT29 cells; in assay [1]) were 1 to 100 nM, over 3000 nM and 0.005 to 0.015 µM, respectively.
For `C=CC(=O)N1CCc2nn(-c3ccc(C4CC4)c(F)c3O)c3c2C(C1)N(C(=O)c1cnc(C(F)(F)F)cc1N)CC3` (stereo not drawn) [Compound 203, 1-(5-(4-amino-6-(trifluoromethyl)nicotinoyl)-2-(4-cyclopropyl-3-fluoro-2-hydroxyphenyl)-2,3,4,5,5a,6,8,9-octahydro-7H-1,2,5,7-tetraazabenzo[cd]azulen-7-yl)prop-2-en-1-one], the AC50 in the assay with HCT116 cells was 1 to 100 nM; in the assay with HT29 cells, over 3000 nM; in assay [1], 0.005 to 0.015 µM.
Take `C=CC(=O)N1CCc2nn(-c3ccc(C4CC4)cc3)c3c2C(C1)N(C(=O)c1cnc(SC)nc1N)CC3` (stereo not drawn) [Compound 204, 1-(5-(4-amino-2-(methylthio)pyrimidine-5-carbonyl)-2-(4-cyclopropylphenyl)-2,3,4,5,5a,6,8,9-octahydro-7H-1,2,5,7-tetraazabenzo[cd]azulen-7-yl)prop-2-en-1-one]: the AC50 in the assay with HCT116 cells is 1 to 100 nM; with HT29 cells, over 3000 nM; in assay [1], 0.015 to 0.055 µM.
Consider `C=CC(=O)N1CC(OC2CN(C(C)=O)C2)c2nn(-c3ccc(C4CCC4)cc3)c3c2C(C1)N(C(=O)c1ccc(C(F)(F)F)nc1)CC3` (stereo not drawn) [Compound 205, 1-(9-((1-acetylazetidin-3-yl)oxy)-2-(4-cyclobutylphenyl)-5-(6-(trifluoromethyl)nicotinoyl)-2,3,4,5,5a,6,8,9-octahydro-7H-1,2,5,7-tetraazabenzo[cd]azulen-7-yl)prop-2-en-1-one], for which the values for the AC50 (in the assay on HCT116 cells; in the assay with HT29 cells; in assay [1]) were 1 to 100 nM, over 3000 nM and 0.005 to 0.015 µM, respectively.
`C=CC(=O)N1CCc2nn(-c3ccc(C4CC4)cc3O)c3c2C(C1)N(C(=O)c1cc(C#N)c(C(F)(F)F)cc1N)CC3` (stereo not drawn) [Compound 207, 5-(7-acryloyl-2-(4-cyclopropyl-2-hydroxyphenyl)-3,4,5,5a,6,7,8,9-octahydro-2H-1,2,5,7-tetraazabenzo[cd]azulene-5-carbonyl)-4-amino-2-(trifluoromethyl) benzonitrile]: the AC50 is 1 to 100 nM with HCT116 cells, over 3000 nM with HT29 cells and 0.005 to 0.015 µM in assay [1].
In the same order, the values of `C=CC(=O)N1CCc2nn(-c3ccc(C4CC4)cc3O)c3c2C(C1)N(C(=O)c1cnc(C(F)(F)F)c(C)c1N)CC3` (stereo not drawn) [Compound 208, 1-(5-(4-amino-5-methyl-6-(trifluoromethyl)nicotinoyl)-2-(4-cyclopropyl-2-hydroxyphenyl)-2,3,4,5,5a,6,8,9-octahydro-7H-1,2,5,7-tetraazabenzo[cd]azulen-7-yl)prop-2-en-1-one] are 1 to 100 nM, over 3000 nM and 0.0015 to 0.005 µM.
In the same order, the values of `C=CC(=O)N1CCc2nn(-c3ccc(C4CC4)cc3O)c3c2C(C1)N(C(=O)c1cnc(SC(F)(F)F)cc1N)CC3` (stereo not drawn) [Compound 209, 1-(5-(4-amino-6-((trifluoromethyl)thio)nicotinoyl)-2-(4-cyclopropyl-2-hydroxyphenyl)-2,3,4,5,5a,6,8,9-octahydro-7H-1,2,5,7-tetraazabenzo[cd]azulen-7-yl)prop-2-en-1-one] are 1 to 100 nM, over 3000 nM and 0.0015 to 0.005 µM.
`C=CC(=O)N1CCc2nn(-c3ccc(C4CC4)cc3O)c3c2C(C1)N(C(=O)c1cnc(Cl)c(F)c1N)CC3` (stereo not drawn) [Compound 210, 1-(5-(4-amino-6-chloro-5-fluoronicotinoyl)-2-(4-cyclopropyl-2-hydroxyphenyl)-2,3,4,5,5a,6,8,9-octahydro-7H-1,2,5,7-tetraazabenzo[cd]azulen-7-yl)prop-2-en-1-one]: the results for the AC50 (with HCT116 cells; with HT29 cells; in assay [1]) were 1 to 100 nM, over 3000 nM and 0.0015 to 0.005 µM, respectively.
With `C=CC(=O)N1CCc2nn(-c3ccc(C4CC4)cc3O)c3c2C(C1)N(C(=O)c1cnc(SC)cc1N)CC3` (stereo not drawn) [Compound 211, 1-(5-(4-amino-6-(methylthio)nicotinoyl)-2-(4-cyclopropyl-2-hydroxyphenyl)-2,3,4,5,5a,6,8,9-octahydro-7H-1,2,5,7-tetraazabenzo[cd]azulen-7-yl)prop-2-en-1-one], the figures for the AC50 (in the assay with HCT116 cells; in the assay with HT29 cells; in assay [1]) were 1 to 100 nM, over 3000 nM and 0.0015 to 0.005 µM, respectively.
